According to patent US11154551B2, “HDAC1,2 inhibitors and methods of using the same” (UNIVERSITY OF UTAH RESEARCH FOUNDATION, priority 2014, dated 2021):

Experiments:
[1] = tested on: Karpas-422 cells; test: 53BP1 and γH2AX foci formation after doxorubicin; type: cell-based, human; settings: 24 h pretreatment
Protocol: After 4 h or 8 h of doxorubicin treatment, cells were fixed and immunofluorescence staining was performed with anti-γH2AX and anti-53BP1 antibodies. Cells shown were representative images based on the quantitation. Merge was the overlay of γH2AX and 53BP1 pictures. (B) and (C): Graphs depicted the percentage of cells with 53BP1 foci present at γH2AX containing break sites and the percentages of cells with γH2AX foci.
(§1) Immunofluorescence. Cells were fixed in either 10% formalin or methanol-acetone (1:1) for 10 min at −20*C. The cells were then permeabilized with 0.5% Triton-X-100 in PBS for 5 min at room temperature (RT), blocked in 10% normal goat serum (Sigma) for 30 min and stained with primary antibody for 1 h at RT. Cells were incubated with secondary antibody (anti-mouse or anti-rabbit IgG, Alexa Fluor 488/546) at a 1:600 dilution for 45 min at RT, and counterstained with Hoechst 33342 (Sigma) at 1:1000 dilution to visualize the nuclei. Images were captured using Zeiss Axioskop mot plus microscope with a 40× lens and analyzed using the AxioVision software.
To test this possibility, we treated DLBCL cells with DMSO or ACY957 for 24 h prior to a low dose of doxorubicin (50 nM) treatment. We examined γH2AX and 53BP1 foci formation at 4 h or 8 h post-doxorubicin treatment using immunofluorescence.
The percentage of cells containing 0, 1-5, 6-10 and greater than 10 γH2AX and 53BP1 foci were determined in at least 100 cells from three independent experiments.

[2] = tested on: SUDHL4 and Karpas-422 cells; test: Western blot of γH2AX on chromatin, with or without ionizing radiation; type: cell-based, human
Protocol: (§2) The percentage of cells with 6 or greater γH2AX foci were counted in three independent experiments and at least 100 cells were counted in each experiment. […] Histones were purified using trichloroacetic acid extraction protocol (see Example 1). Western blot analysis was done with anti-γH2AX and histone H2AX served as the loading control. […] Following DMSO or ACY957 treatment, cells were exposed to a 5Gy dose of ionizing radiation and allowed to recover for 30 minutes prior to chromatin extraction. Western blot analysis was done with anti-γH2AX where total histone H2AX served as a loading control. (D): Karpas-422 cells were micro-irradiated with laser and allowed to recover for 15 minutes before fixation and immunofluorescence staining with anti-γH2AX, anti-HDAC1 and anti-HDAC2 antibodies was done.

[3] = tested on: SUDHL4 and Karpas-422 cells; test: γH2AX foci formation by immunofluorescence; type: cell-based, human
Protocol: as §2, §1

[4] = tested on: Hdac1,2 or Hdac3 knockout cell lines; test: Western blot of H4K5ac in conditional Hdac1,2 or Hdac3 knockout cells; type: cell-based, mouse
Protocol: For IC50 determination, recombinant HDAC enzymes were treated with HDAC1,2 or HDAC3 inhibitors in in vitro HDAC assays. (B). Western blots for H3K23ac using extracts from Pre-B-ALL SupB15 cells treated with increasing dose of HDAC1,2 inhibitor (ACY1035). (C). Hdac1^FI/FI, 2^FI/FI cells were infected with Ad-Cre virus to delete HDAC1 and HDAC2 (HDAC1,2 null) or uninfected (WT). (D). Hdac3^FI/FI cells were either uninfected (WT) or infected with Ad-Cre virus to delete Hdac3.

[5] = tested on: Karpas-422 cells; test: RNA-seq gene expression analysis; type: cell-based, human; settings: 24 h
Protocol: RNA samples obtained from three independent treatments were subjected to RiboZero stranded sequencing using the Illumina Hiseq2000 sequencer. RNA-seq data from ACY-957-treated samples was compared to the publically available RNA seq data set from Karpas-422 cells following GSK126 treatment of Karpas-422 cells. […] Genes with adjusted p-value<0.05 and absolute log 2 fold change>0.585 were used in this analysis.
Total RNA was isolated from Karpas cells that were treated with DMSO or 2 μM ACY-957 for 24 h using the Versagene RNA isolation kit (5 Prime). The treatments were done in triplicate and sequenced using the Illumina Hiseq2000 sequencer. Illumina TruSeq Stranded sequencing following RiboZero treatment was performed.
Three independent DMSO or ACY-957 treatments of Karpas-422 cells for 24 h were performed for total RNA isolation, which was then subjected to RNA-seq involving next-generation sequencing and bioinformatics analysis.

Nc1ccc(-c2cccs2)cc1NC(=O)c1ccc2nc(N3CCNCC3)ccc2c1 [ACY-957, N-(2-amino-5-(thiophen-2-yl)phenyl)-2-(piperazin-1-yl)quinoline-6-carboxamide]
53BP1 foci co-localizing with γH2AX foci ([1]; 4 h post-doxorubicin (50 nM)): decrease in the number of 53BP1 foci | percentage of cells with 53BP1 foci ([1]; 8 h doxorubicin): increased to the level that was observed in the control DMSO-treated cells | percentage of cells with γH2AX foci ([1]; 8 h doxorubicin): even higher percentage of cells with 6-10 and greater than 10 γH2AX foci | chromatin associated γH2AX ([2]; 48 hr, Western): increase in chromatin associated γH2AX | γH2AX levels on chromatin after ionizing radiation ([2]; 48 h treatment, 5Gy, 30 min recovery): Increased γH2AX levels on chromatin | cells with γH2AX foci ([3]; 48 h, 2 μM ACY-957, 0.5 μM DZNEP, 0.5 μM GSK126): significant increase in the number of cells with greater than six γH2AX foci | γH2AX foci by immunofluorescence ([3]; EZH2GOF DLBCL cells): increase in γH2AX | H4K5ac in Hdac3-null cells [4]: additive increase in H4K5ac | number of genes up regulated ([5]; 2 μM, vs DMSO): 492 genes | BLIMP1 expression up regulation ([5]; DESeq analysis of RNA-seq): 1.7 fold
